Publication PMC11995216, “End-to-End Backbone Cyclization Enhances Passive Permeability of bRo5 Oligomeric Depsipeptides with Nonlinear Size Dependence” (ACS Medicinal Chemistry Letters, 2025)
Several values for one entry are separate records, joined by “and”; a condition that tells them apart may be missing. Equal values may be shown once. Read-outs that look alike come from different tables or passages of the source. Values belong to the compound of their own block, whether it stands above or below them. Starred links: 1 amine or outer side, 2 acyl side, 3 side chain; linkers in the order of their positions; H or OH if unused. Non-standard residues stand in square brackets, D forms with d. Residues, ends and D or L forms follow the SMILES beside them. *: point of attachment. X2 = CCCCC[C@H](O*)C(=O)OCc1ccccc1; X1 = CCCCC[C@H](O[*:1])C(=O)[*:2]; Ahp(2) = CCCCC[C@H](N)C(=O)O; dNMeA = CN[C@H](C)C(=O)O; Boc = CC(C)(C)OC(=O)*; OBn = c1ccc(CO*)cc1

Legend:
[1] = calculated using Supplement Equation 1, UV detection
[2] = UV detection
[3] = initial concentration 500 uM, UV detection
[4] = initial concentration 500 uM, UV detection; remark: listed apart in the source
PAMPA [5] = conditions: calculated using Supplement Equation 1, UV detection
PAMPA [6] = test system: PAMPA
PAMPA [7] = conditions: UV detection
PAMPA [8] = conditions: initial concentration 500 uM
[9] = PAMPA, 500 uM
in vitro = conditions: PAMPA, Papp
PAMPA [10] = conditions: initial concentration 500 uM, UV detection

%T ([1]; Well 1 / %T, Well 1): 0.52% and 0.53%
%T ([1]; Well 2 / %T, Well 2): 0.54%
%T ([1]; Well 3 / %T, Well 3): 0.53% and 0.5%
%T ([1]; Well 4 / %T, Well 4): 0.5% and 0.52%
%T ([1]; Well 5 / %T, Well 5): 0.53% and 0.52%
% recovery ([2]; Well 1 / %R, Well 1): 91% and 92%
% recovery ([2]; Well 2 / %R, Well 2): 87% and 92%
% recovery ([2]; Well 3 / %R, Well 3): 90%
% recovery ([2]; Well 4 / %R, Well 4): 88% and 86%
% recovery ([2]; Well 5 / %R, Well 5): 87% and 88%
Compound: CCCCC[C@H](NC(=O)[C@@H](C)N(C)C(=O)[C@H](CCCCC)NC(=O)[C@@H](C)N(C)C(=O)[C@H](CCCCC)NC(=O)[C@@H](C)N(C)C(=O)[C@H](CCCCC)OC(=O)[C@@H](C)NC)C(=O)OCc1ccccc1 (H-[dNMeA][X1][dNMeA][Ahp(2)][dNMeA][Ahp(2)][dNMeA][Ahp(2)]-OBn)
donor concentration after incubation ([3]; Well 1 / [donor], Well 1): 396 µM and 397 µM
donor concentration after incubation ([3]; Well 2 / [donor], Well 2): 375 µM and 395 µM
donor concentration after incubation ([3]; Well 3 / [donor], Well 3): 387 µM and 374 µM
donor concentration after incubation ([3]; Well 4 / [donor], Well 4): 382 µM and 368 µM
donor concentration after incubation ([3]; Well 5 / [donor], Well 5): 376 µM and 377 µM
acceptor concentration after incubation ([4]; Well 1 / [acc], Well 1): 56 µM and 61.7 µM
acceptor concentration after incubation ([4]; Well 2 / [acc], Well 2): 58.6 µM and 63.1 µM
acceptor concentration after incubation ([4]; Well 3 / [acc], Well 3): 59.5 µM and 60.4 µM
acceptor concentration after incubation ([4]; Well 4 / [acc], Well 4): 58.3 µM and 60.3 µM
acceptor concentration after incubation ([4]; Well 5 / [acc], Well 5): 60.6 µM and 61.4 µM

%T (PAMPA [5]; Well 1 / %T, Well 1): 0.56% and 0.55%
%T (PAMPA [5]; Well 2 / %T, Well 2): 0.58% and 0.6%
%T (PAMPA [5]; Well 3 / %T, Well 3): 0.6% and 0.62%
%T (PAMPA [5]; Well 4 / %T, Well 4): 0.6% and 0.61%
%T (PAMPA [5]; Well 5 / %T, Well 5): 0.59% and 0.57%
Papp (PAMPA [6]; Papp (x 10^-6 cm/s) – ELSD Detection / [row 1], ELSD Detection): 4.36 ×10⁻⁶ cm/s
Papp (PAMPA [6]; Papp (x 10^-6 cm/s) – ELSD Detection / [row 2], ELSD Detection): 4.48 ×10⁻⁶ cm/s
Papp (PAMPA [6]; Papp (x 10^-6 cm/s) – ELSD Detection / [row 3], ELSD Detection): 4.72 ×10⁻⁶ cm/s
Papp (PAMPA [6]; Papp (x 10^-6 cm/s) – ELSD Detection / [row 4], ELSD Detection): 4.83 ×10⁻⁶ cm/s
Papp (PAMPA [6]; Papp (x 10^-6 cm/s) – ELSD Detection / [row 5], ELSD Detection): 4.34 ×10⁻⁶ cm/s
Papp (PAMPA [6]; Papp (x 10^-6 cm/s) – ELSD Detection / [row 6], ELSD Detection): 4.86 ×10⁻⁶ cm/s
Papp (PAMPA [6]; Papp (x 10^-6 cm/s) – ELSD Detection / [row 7], ELSD Detection): 4.88 ×10⁻⁶ cm/s
Papp (PAMPA [6]; Papp (x 10^-6 cm/s) – ELSD Detection / [row 8], ELSD Detection): 5.23 ×10⁻⁶ cm/s
Papp (PAMPA [6]; Papp (x 10^-6 cm/s) – ELSD Detection / [row 9], ELSD Detection): 5.23 ×10⁻⁶ cm/s
Papp (PAMPA [6]; Papp (x 10^-6 cm/s) – ELSD Detection / [row 10], ELSD Detection): 4.89 ×10⁻⁶ cm/s
Papp (PAMPA [6]; Papp (x 10^-6 cm/s) – UV Detection / [row 1], UV Detection): 4.63 ×10⁻⁶ cm/s
Papp (PAMPA [6]; Papp (x 10^-6 cm/s) – UV Detection / [row 2], UV Detection): 4.93 ×10⁻⁶ cm/s
Papp (PAMPA [6]; Papp (x 10^-6 cm/s) – UV Detection / [row 3], UV Detection): 5.16 ×10⁻⁶ cm/s
Papp (PAMPA [6]; Papp (x 10^-6 cm/s) – UV Detection / [row 4], UV Detection): 5.2 ×10⁻⁶ cm/s
Papp (PAMPA [6]; Papp (x 10^-6 cm/s) – UV Detection / [row 6], UV Detection): 4.49 ×10⁻⁶ cm/s
Papp (PAMPA [6]; Papp (x 10^-6 cm/s) – UV Detection / [row 7], UV Detection): 5.18 ×10⁻⁶ cm/s
Papp (PAMPA [6]; Papp (x 10^-6 cm/s) – UV Detection / [row 8], UV Detection): 5.55 ×10⁻⁶ cm/s
Papp (PAMPA [6]; Papp (x 10^-6 cm/s) – UV Detection / [row 9], UV Detection): 5.44 ×10⁻⁶ cm/s
Papp (PAMPA [6]; Papp (x 10^-6 cm/s) – UV Detection / [row 10], UV Detection): 4.87 ×10⁻⁶ cm/s
% recovery (PAMPA [7]; Well 1 / %R, Well 1): 90%
% recovery (PAMPA [7]; Well 2 / %R, Well 2): 90% and 92%
% recovery (PAMPA [7]; Well 3 / %R, Well 3): 93% and 90%
% recovery (PAMPA [7]; Well 4 / %R, Well 4): 92%
% recovery (PAMPA [7]; Well 5 / %R, Well 5): 88% and 89%
LogPapp [9]: -5.30 ± 0.03
Δ % diffusion [9]: ↑5%
Papp at 500 uM (in vitro): 5.05 ± 0.33 ×10⁻⁶ cm/s
Papp at 500 uM (in vitro; Ave): 4.78 ×10⁻⁶ cm/s
Compound: CCCCC[C@@H]1OC(=O)[C@@H](C)N(C)C(=O)[C@H](CCCCC)OC(=O)[C@@H](C)N(C)C1=O [Compound C1.2]
Acceptor Concentration (PAMPA [8]; Acceptor Concentration (uM) – ELSD Detection / [row 1], ELSD Detection): 94.8 µM
Acceptor Concentration (PAMPA [8]; Acceptor Concentration (uM) – ELSD Detection / [row 2], ELSD Detection): 98.9 µM
Acceptor Concentration (PAMPA [8]; Acceptor Concentration (uM) – ELSD Detection / [row 3], ELSD Detection): 102 µM
Acceptor Concentration (PAMPA [8]; Acceptor Concentration (uM) – ELSD Detection / [row 4], ELSD Detection): 107 µM
Acceptor Concentration (PAMPA [8]; Acceptor Concentration (uM) – ELSD Detection / [row 5], ELSD Detection): 98.1 µM
Acceptor Concentration (PAMPA [8]; Acceptor Concentration (uM) – ELSD Detection / [row 6], ELSD Detection): 113 µM
Acceptor Concentration (PAMPA [8]; Acceptor Concentration (uM) – ELSD Detection / [row 7], ELSD Detection): 118 µM
Acceptor Concentration (PAMPA [8]; Acceptor Concentration (uM) – ELSD Detection / [row 8], ELSD Detection): 122 µM
Acceptor Concentration (PAMPA [8]; Acceptor Concentration (uM) – ELSD Detection / [row 9], ELSD Detection): 113 µM
Acceptor Concentration (PAMPA [8]; Acceptor Concentration (uM) – ELSD Detection / [row 10], ELSD Detection): 109 µM
Acceptor Concentration (PAMPA [8]; Acceptor Concentration (uM) – UV Detection / [row 1], UV Detection): 98.5 µM
Acceptor Concentration (PAMPA [8]; Acceptor Concentration (uM) – UV Detection / [row 2], UV Detection): 103 µM
Acceptor Concentration (PAMPA [8]; Acceptor Concentration (uM) – UV Detection / [row 3], UV Detection): 111 µM
Acceptor Concentration (PAMPA [8]; Acceptor Concentration (uM) – UV Detection / [row 4], UV Detection): 108 µM
Acceptor Concentration (PAMPA [8]; Acceptor Concentration (uM) – UV Detection / [row 5], UV Detection): 103 µM
Acceptor Concentration (PAMPA [8]; Acceptor Concentration (uM) – UV Detection / [row 6], UV Detection): 95 µM
Acceptor Concentration (PAMPA [8]; Acceptor Concentration (uM) – UV Detection / [row 7], UV Detection): 109 µM
Acceptor Concentration (PAMPA [8]; Acceptor Concentration (uM) – UV Detection / [row 8], UV Detection): 114 µM
Acceptor Concentration (PAMPA [8]; Acceptor Concentration (uM) – UV Detection / [row 9], UV Detection): 114 µM
donor concentration after incubation (PAMPA [10]; Well 1 / [donor], Well 1): 356 µM
donor concentration after incubation (PAMPA [10]; Well 2 / [donor], Well 2): 347 µM and 350 µM
donor concentration after incubation (PAMPA [10]; Well 3 / [donor], Well 3): 356 µM and 338 µM
donor concentration after incubation (PAMPA [10]; Well 4 / [donor], Well 4): 346 µM
donor concentration after incubation (PAMPA [10]; Well 5 / [donor], Well 5): 339 µM and 346 µM

%T ([1]; Well 1 / %T, Well 1): 0.47% and 0.5%
%T ([1]; Well 2 / %T, Well 2): 0.47% and 0.52%
%T ([1]; Well 3 / %T, Well 3): 0.49%
%T ([1]; Well 4 / %T, Well 4): 0.48% and 0.5%
%T ([1]; Well 5 / %T, Well 5): 0.49% and 0.5%
Papp (PAMPA [6]; Papp (x 10^-6 cm/s) / [row 1], UV detection): 3.57 ×10⁻⁶ cm/s
Papp (PAMPA [6]; Papp (x 10^-6 cm/s) / [row 2], UV detection): 4.24 ×10⁻⁶ cm/s
Papp (PAMPA [6]; Papp (x 10^-6 cm/s) / [row 3], UV detection): 3.98 ×10⁻⁶ cm/s
Papp (PAMPA [6]; Papp (x 10^-6 cm/s) / [row 4], UV detection): 4.55 ×10⁻⁶ cm/s
Papp (PAMPA [6]; Papp (x 10^-6 cm/s) / [row 5], UV detection): 4.01 ×10⁻⁶ cm/s
Papp (PAMPA [6]; Papp (x 10^-6 cm/s) / [row 6], UV detection): 3.22 ×10⁻⁶ cm/s
Papp (PAMPA [6]; Papp (x 10^-6 cm/s) / [row 7], UV detection): 3.32 ×10⁻⁶ cm/s
Papp (PAMPA [6]; Papp (x 10^-6 cm/s) / [row 8], UV detection): 4.45 ×10⁻⁶ cm/s
Papp (PAMPA [6]; Papp (x 10^-6 cm/s) / [row 9], UV detection): 4.33 ×10⁻⁶ cm/s
Papp (PAMPA [6]; Papp (x 10^-6 cm/s) / [row 10], UV detection): 4.04 ×10⁻⁶ cm/s
% recovery ([2]; Well 1 / %R, Well 1): 97% and 99%
% recovery ([2]; Well 2 / %R, Well 2): 94%
% recovery ([2]; Well 3 / %R, Well 3): 96%
% recovery ([2]; Well 4 / %R, Well 4): 92% and 84%
% recovery ([2]; Well 5 / %R, Well 5): 98% and 88%
LogPapp [9]: -5.40 ± 0.05
Δ % diffusion [9]: ↑19%
Papp at 500 uM (in vitro): 3.97 ± 0.46 ×10⁻⁶ cm/s
Compound: CCCCC[C@H](NC(=O)[C@@H](C)N(C)C(=O)OC(C)(C)C)C(=O)N(C)[C@H](C)C(=O)O[C@@H](CCCCC)C(=O)N(C)[C@H](C)C(=O)O[C@@H](CCCCC)C(=O)N(C)[C@H](C)C(=O)O[C@@H](CCCCC)C(=O)OCc1ccccc1 [Compound L2.1] (Boc-[dNMeA][Ahp(2)][dNMeA][X1][dNMeA][X1][dNMeA]-X2)
Acceptor Concentration (PAMPA [8]; Acceptor Concentration (uM) / [row 1], UV detection): 83.2 µM
Acceptor Concentration (PAMPA [8]; Acceptor Concentration (uM) / [row 2], UV detection): 94.6 µM
Acceptor Concentration (PAMPA [8]; Acceptor Concentration (uM) / [row 3], UV detection): 90.8 µM
Acceptor Concentration (PAMPA [8]; Acceptor Concentration (uM) / [row 4], UV detection): 98.2 µM
Acceptor Concentration (PAMPA [8]; Acceptor Concentration (uM) / [row 5], UV detection): 93.2 µM
Acceptor Concentration (PAMPA [8]; Acceptor Concentration (uM) / [row 6], UV detection): 76.9 µM
Acceptor Concentration (PAMPA [8]; Acceptor Concentration (uM) / [row 7], UV detection): 74.6 µM
Acceptor Concentration (PAMPA [8]; Acceptor Concentration (uM) / [row 8], UV detection): 97.5 µM
Acceptor Concentration (PAMPA [8]; Acceptor Concentration (uM) / [row 9], UV detection): 85.3 µM
Acceptor Concentration (PAMPA [8]; Acceptor Concentration (uM) / [row 10], UV detection): 83.9 µM
donor concentration after incubation ([3]; Well 1 / [donor], Well 1): 402 µM and 418 µM
donor concentration after incubation ([3]; Well 2 / [donor], Well 2): 377 µM and 393 µM
donor concentration after incubation ([3]; Well 3 / [donor], Well 3): 388 µM and 368 µM
donor concentration after incubation ([3]; Well 4 / [donor], Well 4): 363 µM and 335 µM
donor concentration after incubation ([3]; Well 5 / [donor], Well 5): 395 µM and 356 µM
